{"source": "patent US20020004072A1", "about": "“\"COMPOSITION PROVIDING A SUSTAINED RELEASE OF L-HISTIDINE AND METHODS OF MANUFACTURE THEREOF\"” (priority 1999, published 2002)", "assay": "Bulk and tapped density measurement by standard pharmaceutical methods", "assay_type": "physicochemical", "procedure": "Density measurements were carried out using standard pharmaceutical methods for the measurement of bulk and tapped density. A comparison of the apparent density of the freshly dispensed or bulk powder to that of powder after settling is shown in Table 4.", "data": [{"smiles": "N[C@@H](Cc1c[nH]cn1)C(=O)O", "note": "[L-Histidine]", "values": [{"measurement": "Bulk Density", "setting": "freshly dispensed or bulk powder", "result": 0.55, "unit": "g/mL"}, {"measurement": "Tapped Density", "setting": "powder after settling", "result": 0.79, "unit": "g/mL"}]}]}
